Laboratory results from patent publication US20100306877A1, “FLAVONOID GLUCOSYLTRANSFERASE AND USE OF SAME” (International Flower Development Proprietary Limited, priority 2006, published 2010).

Tested on: protein encoded by cDNA contained in pSPB1123 (flavonol 3GT)
Experiment: Glucosyltransferase activity of the protein encoded by pSPB1123 cDNA expressed in yeast, product measured by HPLC
Type: biochemical, rose
Conditions: flavonol substrates compared
Source text: In order to analyze the activity of a protein encoded by cDNA contained in pSPB1123, this cDNA was expressed in yeast cells. Yeast expression vector pYE22m (Plant Cell Physiol. (1996) 37, 711-716) was used to express the cDNA in yeast. A fragment obtained by digested pSPB1123 cDNA with EcoRI and KpnI was inserted into an EcoRI and KpnI recognition sequence of pYE22m to obtain a yeast expression vector. This vector was then inserted into yeast strain G1315 followed by measurement of activity of the protein encoded by pSPB1123 according to the method described on pp. 114-118 of Shinseibutsugaku Jikken (New Biological Experiment) Manual 3 (Kagaku-Dojin Publishing Co., Inc.). The method for measuring activity and the conditions for measuring a product by HPLC were the same as the method and the like described in Plant Physiology (2003) 132, 1652-1663. Furthermore, anthocyanin (cyanidin, pelargonidin), cyanidin 3-glucoside (cyanidin 3G), cyanidin 3,5-diglucoside (cyanidin 3,5G), flavonol (quercetin, kaempferol) and flavone (apigenin, luteolin) were used as substrates for measurement of the activity.

| substrate preference | Structure (SMILES) |
| --- | --- |
| prefer quercetin to kaempferol | O=c1c(O)c(-c2ccc(O)cc2)oc2cc(O)cc(O)c12 [kaempferol] |
| prefer quercetin to kaempferol | O=c1c(O)c(-c2ccc(O)c(O)c2)oc2cc(O)cc(O)c12 [quercetin] |
